Data published in PubChem BioAssay (NCI).
Several values for one entry are separate records, joined by “and”; a condition that tells them apart may be missing. Equal entries are not always repeated.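 96-well plates; 48 h exposure; 5 concentrations. Endpoints by linear interpolation between flanking doses. Not reached: highest tested concentration assigned. Here, GI50 denotes the concentration required for 50% inhibition of growth. Definition used: TGI = concentration required for complete inhibition of growth.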

Assays:
Assay in all cases: NCI tumour cell line growth inhibition, 48 h
[1] = tested on: COLO 205 colon
[2] = tested on: A549 NSCLC
[3] = tested on: UO-31 renal
[4] = tested on: NCI-H522 lung
[5] = tested on: DMS 114 small cell lung
[6] = tested on: CAKI-1 renal
[7] = tested on: M19-MEL melanoma
[8] = tested on: PC-3 prostate
[9] = tested on: MDA-MB-231 breast
[10] = tested on: SK-OV-3 ovarian
[11] = tested on: HCT-116 colon
[12] = tested on: OVCAR-5 ovarian
[13] = tested on: SR leukemia
[14] = tested on: 786-0 renal
[15] = tested on: ACHN renal
[16] = tested on: MALME-3M melanoma
[17] = tested on: SF-539 CNS
[18] = tested on: SK-MEL-5 melanoma
[19] = tested on: CCRF-CEM leukemia
[20] = tested on: EKVX NSCLC
[21] = tested on: HL-60(TB) leukemia
[22] = tested on: HS 578T breast
[23] = tested on: HCT-15 colon
[24] = tested on: HT29 colon
[25] = tested on: HOP-62 NSCLC
[26] = tested on: RPMI-8226 leukemia
[27] = tested on: UACC-62 melanoma
[28] = tested on: SK-MEL-2 melanoma
[29] = tested on: DMS 273 small cell lung
[30] = tested on: OVCAR-4 ovarian
[31] = tested on: IGROV1 ovarian
[32] = tested on: P388/ADR leukemia
[33] = tested on: LOX IMVI melanoma
[34] = tested on: SNB-19 CNS
[35] = tested on: MDA-MB-435
[36] = tested on: DU-145 prostate
[37] = tested on: SF-268 CNS
[38] = tested on: OVCAR-3 ovarian
[39] = tested on: NCI-H460 lung
[40] = tested on: XF 498 CNS
[41] = tested on: SNB-75 CNS
[42] = tested on: A498 renal
[43] = tested on: HCC-2998 colon
[44] = tested on: SN12C renal
[45] = tested on: SF-295 CNS
[46] = tested on: HOP-18 NSCLC
[47] = tested on: MCF7 breast
[48] = tested on: DLD-1 colon
[49] = tested on: KM12 colon
[50] = tested on: MDA-N
[51] = tested on: T-47D breast
[52] = tested on: TK-10 renal
[53] = tested on: NCI/ADR-RES ovarian
[54] = tested on: UACC-257 melanoma
[55] = tested on: MOLT-4 leukemia
[56] = tested on: KM20L2 colon
[57] = tested on: NCI-H23 lung
[58] = tested on: HOP-92 NSCLC
[59] = tested on: SNB-78 CNS
[60] = tested on: NCI-H226 lung
[61] = tested on: BT-549 breast
[62] = tested on: SW-620 colon
[63] = tested on: K-562 leukemia
[64] = tested on: RXF 393 renal
[65] = tested on: U251 CNS
[66] = tested on: OVCAR-8 ovarian
[67] = tested on: SK-MEL-28 melanoma
[68] = tested on: M14 melanoma
[69] = tested on: RXF-631 renal
[70] = tested on: LXFL 529 NSCLC

C/C=C1\NC(=O)[C@H]2CSSCCC=C[C@H](CC(=O)N[C@H](C(C)C)C(=O)N2)OC(=O)[C@H](C(C)C)NC1=O
GI50 [1]: < 10 nM and 0.172 nM
TGI [1]: < 10 nM and 0.811 nM
GI50 [2]: < 10 nM
TGI [2]: < 12 nM and 20.5 nM and 18.5 nM
GI50 [3]: 26 nM and 14.5 nM
GI50 [4]: < 10 nM and 0.105 nM
TGI [4]: < 10 nM and 0.166 nM
TGI [5]: 8.85 nM
GI50 [6]: < 33.9 nM
TGI [6]: 77.2 nM and 24.4 nM and < 10.4 nM
TGI [7]: 56.4 nM and 65 nM
GI50 [8]: < 10 nM
GI50 [9]: < 10 nM
GI50 [10]: < 10 nM and 0.175 nM
TGI [10]: < 10 nM and 7.89 nM
GI50 [11]: < 10 nM
TGI [11]: < 10 nM and 14.5 nM and 19.3 nM
GI50 [12]: < 10 nM and 0.261 nM
GI50 [13]: < 10 nM and 0.119 nM
TGI [13]: 221 nM and 28.6 nM and 47 nM
GI50 [14]: < 10 nM and 0.554 nM
GI50 [15]: < 10 nM
TGI [15]: 45.9 nM and 36.4 nM
GI50 [16]: < 10 nM and 0.0209 nM
GI50 [17]: < 10 nM
TGI [17]: 179 nM and 51 nM and 46.9 nM
GI50 [18]: < 10 nM
TGI [18]: < 10 nM and 0.359 nM
GI50 [19]: < 10 nM
TGI [19]: 273 nM and 53.4 nM and 102 nM
GI50 [20]: < 10 nM
GI50 [21]: < 10 nM and 0.299 nM
GI50 [22]: < 10 nM
TGI [22]: 43.9 nM
GI50 [23]: 203 nM and 55.1 nM
TGI [23]: 3750 nM and 1590 nM
GI50 [24]: < 10 nM
TGI [24]: < 10 nM and 11.6 nM and 26.2 nM
GI50 [25]: < 10 nM
GI50 [26]: < 10 nM
GI50 [27]: < 10 nM
TGI [27]: < 10 nM and 11.3 nM
GI50 [28]: < 10 nM and 0.0954 nM
TGI [29]: 10.2 nM
GI50 [30]: 10.9 nM and < 10.2 nM
TGI [30]: 201 nM and 89.2 nM and 619 nM
GI50 [31]: < 10 nM and 0.421 nM
TGI [32]: 125 nM
GI50 [33]: < 10 nM and 0.122 nM
TGI [33]: < 10 nM and 1.04 nM
GI50 [34]: < 10 nM
TGI [34]: 30.1 nM and 53.8 nM
GI50 [35]: < 10 nM
TGI [35]: < 13.4 nM and 20.7 nM and 125 nM
GI50 [36]: < 10 nM
TGI [36]: 226 nM and 64.5 nM and 199 nM
GI50 [37]: < 10 nM
TGI [37]: 20.6 nM and 40.1 nM
GI50 [38]: < 10 nM
TGI [38]: < 10.8 nM and 2.94 nM
GI50 [39]: < 10 nM
TGI [40]: 15.5 nM and 62.4 nM
GI50 [41]: < 10.4 nM
GI50 [42]: < 10 nM
TGI [42]: < 10 nM and 0.402 nM
GI50 [43]: 0.813 nM
TGI [43]: < 10 nM and 4.48 nM
GI50 [44]: < 10 nM
GI50 [45]: < 10 nM
TGI [45]: < 10 nM and 13 nM
TGI [46]: 54 nM and 71.9 nM
GI50 [47]: < 10 nM
TGI [47]: 14.8 nM and 9.81 nM and 35.2 nM
GI50 [48]: 10.2 nM
TGI [48]: 289 nM
GI50 [49]: < 10 nM
TGI [50]: 17.6 nM and < 31.9 nM
GI50 [51]: < 10 nM
TGI [51]: < 10 nM and 10.3 nM
GI50 [52]: < 10 nM
GI50 [53]: 1980 nM and 676 nM
TGI [53]: 27700 nM and 11200 nM
GI50 [54]: < 10 nM and 0.137 nM
GI50 [55]: < 10 nM
TGI [56]: 7.96 nM
GI50 [57]: < 10 nM
GI50 [58]: < 10 nM
TGI [58]: < 10 nM and 16.1 nM and < 32.4 nM
GI50 [59]: 12.3 nM
GI50 [60]: < 10 nM
TGI [60]: 268 nM and 31.7 nM and < 31.2 nM
GI50 [61]: < 10 nM and 0.0646 nM and < 11.1 nM
GI50 [62]: < 10 nM
TGI [62]: < 10 nM and 19.5 nM and < 16.1 nM
GI50 [63]: < 10 nM and 0.147 nM
GI50 [64]: < 10 nM
TGI [64]: 10.1 nM and 2.53 nM
GI50 [65]: < 10 nM and 0.136 nM
TGI [65]: < 10 nM and 1.47 nM and < 25.2 nM
GI50 [66]: < 10 nM
TGI [66]: 66.8 nM and 72 nM and 154 nM
GI50 [67]: < 10 nM
TGI [67]: < 10 nM and 17.5 nM and < 12.2 nM
GI50 [68]: < 10 nM
TGI [68]: 263 nM and 82.6 nM and 206 nM

CCOC(=O)c1s/c(=N\Nc2nc3ccccc3cc2C2OCCO2)n(Cc2ccccc2)c1C
TGI [1]: > 100000 nM
TGI [2]: > 100000 nM
TGI [3]: > 100000 nM
TGI [4]: > 100000 nM
TGI [5]: > 100000 nM
TGI [69]: > 100000 nM
TGI [70]: > 100000 nM
TGI [6]: > 100000 nM
TGI [7]: > 100000 nM
TGI [10]: > 100000 nM
TGI [11]: > 100000 nM
TGI [12]: > 100000 nM
TGI [13]: > 100000 nM
TGI [14]: > 100000 nM
TGI [15]: > 100000 nM
TGI [16]: > 100000 nM
TGI [17]: > 100000 nM
TGI [18]: > 100000 nM
TGI [19]: > 100000 nM
TGI [20]: > 100000 nM
TGI [21]: > 100000 nM
TGI [23]: > 100000 nM
TGI [24]: > 100000 nM
TGI [25]: > 100000 nM
TGI [26]: > 100000 nM
TGI [27]: > 100000 nM
TGI [28]: > 100000 nM
TGI [29]: > 100000 nM
TGI [30]: > 100000 nM
TGI [31]: > 100000 nM
TGI [33]: > 100000 nM
TGI [34]: > 100000 nM
TGI [37]: > 100000 nM
TGI [38]: > 100000 nM
TGI [39]: > 100000 nM
TGI [40]: > 100000 nM
TGI [41]: > 100000 nM
TGI [42]: > 100000 nM
TGI [44]: > 100000 nM
TGI [45]: > 100000 nM
TGI [46]: > 100000 nM
TGI [48]: > 100000 nM
TGI [49]: > 100000 nM
TGI [52]: > 100000 nM
TGI [54]: > 100000 nM
TGI [55]: > 100000 nM
TGI [56]: > 100000 nM
TGI [57]: > 100000 nM
TGI [58]: > 100000 nM
TGI [59]: > 100000 nM
TGI [60]: > 100000 nM
TGI [62]: > 100000 nM
TGI [63]: > 100000 nM
TGI [64]: > 100000 nM
TGI [65]: > 100000 nM
TGI [66]: > 100000 nM
TGI [67]: > 100000 nM
TGI [68]: > 100000 nM
